Test results: paper PMC8963254, “Effects of Lysine N-ζ-Methylation in Ultrashort Tetrabasic Lipopeptides (UTBLPs) on the Potentiation of Rifampicin, Novobiocin, and Niclosamide in Gram-Negative Bacteria” (Antibiotics, 2022)
Where two headings read alike, the source gives them in different places. Residues, ends and D or L forms follow the SMILES beside them. *: point of attachment. Octanoyl = CCCCCCCC(=O)*

Columns and labels:
K. pneumoniae 113250 = assay type: cell-based, Klebsiella pneumoniae; conditions: for MICUTBLP: UTBLP alone
Outline: (§1)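 Values derive from a two-agent checkerboard with an 18 h, 37 °C incubation. FICI cut-offs: ≤0.5 synergy, 0.5–4 additive, >4 antagonism.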

A. baumannii AB92247 = assay: microbe, parasite or virus in culture; assay type: cell-based, Acinetobacter baumannii; conditions: AB92247, 18 h
Outline: (§2)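 MIC was determined by broth microdilution following CLSI guidelines. Serially varied compound concentrations were incubated with bacterial inoculum at 5 × 10^5 CFU/mL (final) for 18 h at 37 °C. Growth was scored as turbidity by absorbance at 590 nm.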

A. baumannii AB027 = assay: microbe, parasite or virus in culture; assay type: cell-based, Acinetobacter baumannii; conditions: AB027, 18 h
Outline: as §2

[1] = tested on: P. aeruginosa PA259-96196; assay: microbe, parasite or virus in culture; assay type: cell-based, Pseudomonas aeruginosa; conditions: PA259-96196, 18 h
Outline: as §2

[2] = tested on: P. aeruginosa PA262-101856; assay: microbe, parasite or virus in culture; assay type: cell-based, Pseudomonas aeruginosa; conditions: PA262-101856, 18 h
Outline: as §2

E. cloacae 118564 [3] = assay: microbe, parasite or virus in culture; assay type: cell-based, Enterobacter cloacae; conditions: 118564, 18 h
Outline: as §2

A. baumannii ATCC 17978 = assay type: cell-based, Acinetobacter baumannii; conditions: for MICUTBLP: UTBLP alone
Outline: as §1

E. cloacae 118564 [4] = assay type: cell-based, Enterobacter cloacae; conditions: for MICUTBLP: UTBLP alone
Outline: as §1

E. faecalis ATCC 29212 = assay type: cell-based, Enterococcus faecalis; conditions: ATCC 29212, 18 h
Outline: as §2

P. aeruginosa PAO1 [5] = assay type: cell-based, Pseudomonas aeruginosa; conditions: PAO1, 18 h
Outline: as §2

P. aeruginosa PAO1 [6] = assay type: cell-based, Pseudomonas aeruginosa; conditions: for MICUTBLP: UTBLP alone
Outline: as §1

[7] = tested on: P. aeruginosa PA259-96196; assay type: cell-based, Pseudomonas aeruginosa; conditions: for MICUTBLP: UTBLP alone
Outline: as §1

[8] = tested on: P. aeruginosa PA262-101856; assay type: cell-based, Pseudomonas aeruginosa; conditions: for MICUTBLP: UTBLP alone
Outline: as §1

MSSE 81388 = assay type: cell-based, Staphylococcus epidermidis
Outline: as §1

MRSE 61589 = assay type: cell-based, Staphylococcus epidermidis
Outline: as §1

E. faecium ATCC 27270 = assay type: cell-based, Enterococcus faecium; conditions: ATCC 27270, 18 h
Outline: as §2

MRSA ATCC 33592 = assay type: cell-based, Staphylococcus aureus
Outline: as §1

S. aureus ATCC 29213 = assay type: cell-based, Staphylococcus aureus
Outline: as §1

[9] = UTBLP in combination with novobiocin
[10] = UTBLP in combination with rifampicin
[11] = novobiocin in combination with the UTBLP
[12] = rifampicin in combination with the UTBLP
[13] = UTBLP in combination with chloramphenicol
[14] = UTBLP in combination with niclosamide
[15] = chloramphenicol in combination with the UTBLP
[16] = niclosamide in combination with the UTBLP
[17] = UTBLP alone, plate with chloramphenicol

CCCCCCCC(=O)NCCCC[C@H](NC(=O)CCCCCCC)C(=O)N[C@@H](CCCCN)C(=O)N[C@@H](CCCCN)C(=O)N[C@@H](CCCCN)C(=O)N[C@@H](CCCCN)C(N)=O [UTBLP 5] (Octanoyl-K(Octanoyl)KKKK-NH2)
> 128 mg/L: MIC [2] | MIC (E. cloacae 118564 [3])
64 µg/mL: MICUTBLP (A. baumannii ATCC 17978; plate with chloramphenicol) | MICUTBLP (A. baumannii ATCC 17978; plate with niclosamide) | MICUTBLP (A. baumannii ATCC 17978; plate with novobiocin) | MICUTBLP (A. baumannii ATCC 17978; plate with rifampicin) | MICUTBLP (MRSA ATCC 33592; [17]) | MICchloramphenicol [MICcombo] (MRSA ATCC 33592; [15]) | MICUTBLP (S. aureus ATCC 29213; [17])
> 128 µg/mL: MICUTBLP (K. pneumoniae 113250; plate with novobiocin) | MICUTBLP (K. pneumoniae 113250; plate with rifampicin) | MICUTBLP (E. cloacae 118564 [4]; plate with novobiocin) | MICUTBLP (E. cloacae 118564 [4]; plate with rifampicin) | MICUTBLP (P. aeruginosa PAO1 [6]; plate with chloramphenicol) | MICUTBLP (P. aeruginosa PAO1 [6]; plate with niclosamide) | MICUTBLP (P. aeruginosa PAO1 [6]; plate with novobiocin) | MICUTBLP (P. aeruginosa PAO1 [6]; plate with rifampicin) | MICUTBLP ([7]; plate with rifampicin) | MICUTBLP ([8]; plate with novobiocin) | MICUTBLP ([8]; plate with rifampicin)
2 µg/mL: MICUTBLP [MICcombo] (A. baumannii ATCC 17978; [9]) | MICUTBLP [MICcombo] (P. aeruginosa PAO1 [6]; [13]) | MICantibiotic [MICcombo] (P. aeruginosa PAO1 [6]; [15]) | MICchloramphenicol [MICcombo] (S. aureus ATCC 29213; [15])
32 mg/L: MIC (A. baumannii AB92247) | MIC (E. faecalis ATCC 29212) | MIC (E. faecium ATCC 27270)
8 µg/mL: MICUTBLP [MICcombo] (K. pneumoniae 113250; [10]) | MICUTBLP [MICcombo] (E. cloacae 118564 [4]; [10]) | MICantibiotic [MICcombo] (P. aeruginosa PAO1 [6]; [11]) | MICUTBLP [MICcombo] [7, 10] | MICUTBLP [MICcombo] (MSSE 81388; [13]) | MICUTBLP (MRSE 61589; [17])
Synergy (FICI ≤ 0.5 is synergistic): Interpretation (K. pneumoniae 113250; UTBLP + novobiocin) | Interpretation (K. pneumoniae 113250; UTBLP + rifampicin) | Interpretation (A. baumannii ATCC 17978; UTBLP + niclosamide) | Interpretation (A. baumannii ATCC 17978; UTBLP + novobiocin) | Interpretation (A. baumannii ATCC 17978; UTBLP + rifampicin) | Interpretation (E. cloacae 118564 [4]; UTBLP + novobiocin) | Interpretation (E. cloacae 118564 [4]; UTBLP + rifampicin) | Interpretation (P. aeruginosa PAO1 [6]; UTBLP + chloramphenicol) | Interpretation (P. aeruginosa PAO1 [6]; UTBLP + niclosamide) | Interpretation (P. aeruginosa PAO1 [6]; UTBLP + novobiocin) | Interpretation (P. aeruginosa PAO1 [6]; UTBLP + rifampicin) | Interpretation ([7]; UTBLP + novobiocin) | Interpretation ([7]; UTBLP + rifampicin) | Interpretation ([8]; UTBLP + novobiocin) | Interpretation ([8]; UTBLP + rifampicin)
128 µg/mL: MICUTBLP ([7]; plate with novobiocin)
0.5 µg/mL: MICantibiotic [MICcombo] (K. pneumoniae 113250; [12]) | MICUTBLP [MICcombo] (A. baumannii ATCC 17978; [14]) | MICantibiotic [MICcombo] (E. cloacae 118564 [4]; [11]) | MICantibiotic [MICcombo] (E. cloacae 118564 [4]; [12]) | MICantibiotic [MICcombo] (P. aeruginosa PAO1 [6]; [12]) | MICantibiotic [MICcombo] [7, 12]
1 µg/mL: MICantibiotic [MICcombo] (K. pneumoniae 113250; [11]) | MICUTBLP [MICcombo] (A. baumannii ATCC 17978; [10]) | MICantibiotic [MICcombo] (A. baumannii ATCC 17978; [16])
16 µg/mL: MICUTBLP [MICcombo] (K. pneumoniae 113250; [9]) | MICUTBLP [MICcombo] (E. cloacae 118564 [4]; [9]) | MICUTBLP [MICcombo] (P. aeruginosa PAO1 [6]; [9]) | MICUTBLP [MICcombo] (P. aeruginosa PAO1 [6]; [10]) | MICantibiotic [MICcombo] [7, 11] | MICUTBLP [MICcombo] [8, 9] | MICUTBLP [MICcombo] [8, 10] | MICantibiotic [MICcombo] [8, 11] | MICUTBLP (MSSE 81388; [17]) | MICUTBLP [MICcombo] (S. aureus ATCC 29213; [13])
32 µg/mL: MICantibiotic [MICcombo] (A. baumannii ATCC 17978; [15]) | MICantibiotic [MICcombo] [8, 12]
0.031 µg/mL: MICantibiotic [MICcombo] (A. baumannii ATCC 17978; [12])
>128 mg/L: MIC (P. aeruginosa PAO1 [5])
4 µg/mL: MICUTBLP [MICcombo] (A. baumannii ATCC 17978; [13]) | MICUTBLP [MICcombo] (P. aeruginosa PAO1 [6]; [14]) | MICantibiotic [MICcombo] (P. aeruginosa PAO1 [6]; [16]) | MICUTBLP [MICcombo] [7, 9] | MICUTBLP [MICcombo] (MRSE 61589; [13]) | MICchloramphenicol [MICcombo] (MRSE 61589; [15])
Additive (0.5 < x ≤ 4 is additive): Interpretation (A. baumannii ATCC 17978; UTBLP + chloramphenicol) | Interpretation (MSSE 81388; UTBLP + chloramphenicol) | Interpretation (MRSE 61589; UTBLP + chloramphenicol) | Interpretation (MRSA ATCC 33592; UTBLP + chloramphenicol)
0.25 µg/mL: MICchloramphenicol [MICcombo] (MSSE 81388; [15]) | MICUTBLP [MICcombo] (MRSA ATCC 33592; [13])
128 mg/L: MIC (A. baumannii AB027) | MIC [1]
0.125 µg/mL: MICantibiotic [MICcombo] (A. baumannii ATCC 17978; [11])
